The subject of series [1] is RAW264.7. Put plainly: Antiinflammatory activity against LPS-stimulated mouse RAW264.7 cells assessed as downregulation of PGE2 levels by ELISA. It is filed as functional, cell-based.
The test system of series [2] is RAW264.7. In words: Antiinflammatory activity against LPS-stimulated mouse RAW264.7 cells assessed as downregulation of iNOS levels by ELISA. In kind it is functional, cell-based.
The test system of series [3] is RAW264.7. Put plainly: Cytotoxicity against LPS-stimulated mouse RAW264.7 cells assessed as reduction in cell viability at 50 umol/L after 24 hrs by MTT assay. It is filed as cell-based. Particulars: raw264.7, 24 h, 50 µM.
The nature of series [4]: Inhibition of NFkappaB signaling pathway in LPS-stimulated mouse RAW264.7 cells by ELISA. In kind it is cell-based.
In series [5] the test system is RAW264.7. Put plainly: Antiinflammatory activity against LPS-stimulated mouse RAW264.7 cells assessed as downregulation of NO levels by ELISA. In kind it is functional, cell-based.
Series [6] deals with RAW264.7. Put plainly: Antiinflammatory activity against LPS-stimulated mouse RAW264.7 cells assessed as downregulation of COX2 levels by ELISA. It is filed as functional, cell-based.
In series [7] the test system is RAW264.7. Put plainly: Cytotoxicity against mouse RAW264.7 cells assessed as reduction in cell viability at 50 umol/L after 24 hrs by MTT assay. In kind it is cell-based. Particulars: raw264.7, 24 h, 50 µM.
Series [8] is described as follows: Inhibition of NFkappaB signaling pathway in LPS-stimulated mouse RAW264.7 cells assessed as protein levels at 50umol/L by ELISA (reference value: 1.23 +/- 0.06 pg/mL). In kind it is cell-based.
The test system of series [9] is RAW264.7. In words: Antiinflammatory activity against LPS-stimulated mouse RAW264.7 cells assessed as NO levels at 5 umol/L by ELISA (reference value: 0.95 +/- 0.052 umol/mL). In kind it is functional.
Series [10] concerns RAW264.7. Put plainly: Antiinflammatory activity against LPS-stimulated mouse RAW264.7 cells assessed as PGE2 levels at 5 umol/L by ELISA (reference value: 33.2 +/- 2.33 pg/mL). In kind it is functional.
In series [11] the test system is RAW264.7. In words: Antiinflammatory activity against LPS-stimulated mouse RAW264.7 cells assessed as COX2 levels at 25 umol/L by ELISA (reference value: 159.64 +/- 13.56 pg/mL). In kind it is functional.
The test system of series [12] is RAW264.7. Put plainly: Antiinflammatory activity against LPS-stimulated mouse RAW264.7 cells assessed as PGE2 levels at 50 umol/L by ELISA (reference value: 33.2 +/- 2.33 pg/mL). It is filed as functional.
Series [13] concerns RAW264.7. In words: Antiinflammatory activity against LPS-stimulated mouse RAW264.7 cells assessed as TNFalpha levels at 50 umol/L by ELISA (reference value: 183.21 +/- 5.36 pg/mL). In kind it is functional.
The subject of series [14] is RAW264.7. In words: Antiinflammatory activity against LPS-stimulated mouse RAW264.7 cells assessed as iNOS levels at 50 umol/L by ELISA (reference value: 31.63 +/- 3.26 U/mL). In kind it is functional.
Series [15] has as its system RAW264.7. In words: Antiinflammatory activity against LPS-stimulated mouse RAW264.7 cells assessed as COX2 levels at 50 umol/L by ELISA (reference value: 159.64 +/- 13.56 pg/mL). In kind it is functional.
Series [16] has as its system RAW264.7. In words: Antiinflammatory activity against LPS-stimulated mouse RAW264.7 cells assessed as iNOS levels at 25 umol/L by ELISA (reference value: 31.63 +/- 3.26 U/mL). In kind it is functional.
Series [17] has as its system RAW264.7. In words: Antiinflammatory activity against LPS-stimulated mouse RAW264.7 cells assessed as IL1beta levels at 25 umol/L by ELISA (reference value: 8.70 +/- 0.365 pg/mL). In kind it is functional.
The test system of series [18] is RAW264.7. Put plainly: Antiinflammatory activity against LPS-stimulated mouse RAW264.7 cells assessed as TNFalpha levels at 5 umol/L by ELISA (reference value: 183.21 +/- 5.36 pg/mL). It is filed as functional.
The nature of series [19]: Inhibition of NFkappaB signaling pathway in LPS-stimulated mouse RAW264.7 cells assessed as protein levels at 5 umol/L by ELISA (reference value: 1.23 +/- 0.06 pg/mL). In kind it is cell-based.
Series [20] relates to RAW264.7. Put plainly: Antiinflammatory activity against LPS-stimulated mouse RAW264.7 cells assessed as TNFalpha levels at 25 umol/L by ELISA (reference value: 183.21 +/- 5.36 pg/mL). In kind it is functional.
The subject of series [21] is RAW264.7. Put plainly: Antiinflammatory activity against LPS-stimulated mouse RAW264.7 cells assessed as IL1beta levels at 50 umol/L by ELISA (reference value: 8.70 +/- 0.365 pg/mL). It is filed as functional.
For series [22], the system named is RAW264.7. In words: Antiinflammatory activity against LPS-stimulated mouse RAW264.7 cells assessed as iNOS levels at 5 umol/L by ELISA (reference value: 31.63 +/- 3.26 U/mL). In kind it is functional.
The subject of series [23] is RAW264.7. In words: Antiinflammatory activity against LPS-stimulated mouse RAW264.7 cells assessed as PGE2 levels at 25 umol/L by ELISA (reference value: 33.2 +/- 2.33 pg/mL). In kind it is functional.
Series [24] has as its system RAW264.7. In words: Antiinflammatory activity against LPS-stimulated mouse RAW264.7 cells assessed as IL1beta levels at 5 umol/L by ELISA (reference value: 8.70 +/- 0.365 pg/mL). It is filed as functional.
Series [25] can be described thus: Inhibition of NFkappaB signaling pathway in LPS-stimulated mouse RAW264.7 cells assessed as protein levels at 25 umol/L by ELISA (reference value: 1.23 +/- 0.06 pg/mL). It is filed as cell-based.
The subject of series [26] is RAW264.7. In words: Antiinflammatory activity against LPS-stimulated mouse RAW264.7 cells assessed as NO levels at 50 umol/L by ELISA (reference value: 0.95 +/- 0.052 umol/mL). It is filed as functional.
Series [27] relates to RAW264.7. Put plainly: Antiinflammatory activity against LPS-stimulated mouse RAW264.7 cells assessed as COX2 levels at 5 umol/L by ELISA (reference value: 159.64 +/- 13.56 pg/mL). It is filed as functional.
The subject of series [28] is RAW264.7. In words: Antiinflammatory activity against LPS-stimulated mouse RAW264.7 cells assessed as NO levels at 25 umol/L by ELISA (reference value: 0.95 +/- 0.052 umol/mL). In kind it is functional.

Take `O=C1O[C@@H]2[C@@H](O)[C@H](O)[C@@H](CO)O[C@H]2c2c1cc(O)c(O)c2O`: the Activity result in series [1] is “Dose-dependent effect”; in [2], “Dose-dependent effect”; in [3] it was “Non-toxic”; in [5] it was “Dose-dependent effect”; in [6], “Dose-dependent effect”; in series [7] it was “Non-toxic”. Further, the inhibition entry in [4] was “Dose-dependent effect”.

On to `Oc1ccc(/C=C/c2cc(O)cc(O)c2)cc1` [RESVERATROL], for which the Activity in series [8] was 0.15 pg/mL; in [9], 0.38 µmol/mL; in [10] it was 31.43 pg/mL; in series [11], 104.11 pg/mL; in [3], “Non-toxic”; in series [12], 28.81 pg/mL. Further, the Activity is 74.91 pg/mL in series [13]; 19.26 U/ml in series [14]; “Non-toxic” in [7]; 83.48 pg/mL in series [15]; 25.88 U/ml in series [16]; 4.76 pg/mL in series [17]. Moreover, the Activity in series [18] came out at 109.42 pg/mL; in series [19], 0.57 pg/mL; in series [20] it was 96.47 pg/mL; in [21], 2.98 pg/mL; in series [22], 29.22 U/ml; in series [23], 29.15 pg/mL. In addition, the Activity in series [24] amounted to 5.26 pg/mL; in [25] it was 0.25 pg/mL; in series [26], 0.053 µmol/mL; in [27] it was 121.49 pg/mL; in series [28], 0.082 µmol/mL.

As for `O=c1c(O)cccc2cc(O)c(O)c(O)c12` [PURPUROGALLIN], the Activity is 0.053 pg/mL in series [8]; 0.59 µmol/mL in [9]; 28.76 pg/mL in [10]; 67.73 pg/mL in series [11]; “Non-toxic” in series [3]; 27.57 pg/mL in series [12]. Further, the Activity in series [13] is 42.44 pg/mL; in series [14] it was 21.64 U/ml; in series [7], “Non-toxic”; in [15], 67.23 pg/mL; in series [16], 22.15 U/ml; in series [17], 2.95 pg/mL. For the same compound, the Activity in [18] is 52.85 pg/mL; in series [19] it was 0.32 pg/mL; in [20], 44.36 pg/mL; in series [21], 2.88 pg/mL; in series [22], 31.37 U/ml; in [23], 28.11 pg/mL. The Activity in [24] turned out to be 6.7 pg/mL; in [25] it was 0.086 pg/mL; in series [26] it was 0.21 µmol/mL; in [27], 120.78 pg/mL; in series [28] it was 0.42 µmol/mL.

`O=c1c(O)c(-c2cc(O)c(O)c(O)c2)oc2cc(O)cc(O)c12` [MYRICETIN]: the Activity in series [8] was 0.34 pg/mL; in [9], 0.42 µmol/mL; in series [10] it was 27.23 pg/mL; in series [11], 142.13 pg/mL; in series [3], “Non-toxic”; in series [12] it was 23.33 pg/mL. Further, the Activity was 35.44 pg/mL in series [13]; 17.44 U/ml in series [14]; “Non-toxic” in [7]; 118.25 pg/mL in [15]; 21.38 U/ml in series [16]; 0.91 pg/mL in series [17]. For the same compound, the Activity in series [18] was found to be 36.23 pg/mL; in [19], 0.453 pg/mL; in series [20], 35.59 pg/mL; in series [21], 0.89 pg/mL; in series [22] it was 24.26 U/ml; in [23] it was 23.36 pg/mL. Also, the Activity in series [24] was determined as 3.44 pg/mL; in [25], 0.443 pg/mL; in series [26], 0.12 µmol/mL; in series [27] it was 174.99 pg/mL; in series [28], 0.24 µmol/mL.

Regarding `COc1c(O)cc2c(c1O)[C@@H]1O[C@H](CO[C@H]3O[C@H](CO)[C@H](O)[C@H](O)[C@H]3O)[C@@H](O)[C@H](O)[C@H]1OC2=O`, the Activity entry was “Dose-dependent effect” in series [1]; “Dose-dependent effect” in [2]; “Non-toxic” in [3]; “Dose-dependent effect” in series [5]; “Dose-dependent effect” in series [6]; “Non-toxic” in series [7]. For the same compound, in [4], the inhibition entry was “Dose-dependent effect”.

For the compound `COc1c(O)cc2c(c1O)[C@@H]1O[C@H](CO)[C@@H](O)[C@H](O)[C@H]1OC2=O` [BERGENIN], the Activity entry in [1] was “Dose-dependent effect”; in series [2], “Dose-dependent effect”; in series [3], “Non-toxic”; in series [5], “Dose-dependent effect”; in series [6], “Dose-dependent effect”; in series [7] it was “Non-toxic”. The inhibition result in series [4] is “Dose-dependent effect”.

On to `COc1c(O)cc2c(c1O)[C@@H]1O[C@H](COC(=O)c3cc(O)c(O)c(O)c3)[C@@H](O)[C@H](O)[C@H]1OC2=O`, for which the Activity result in series [1] is “Dose-dependent effect”; in [2], “Dose-dependent effect”; in [3] it was “Non-toxic”; in series [5], “Dose-dependent effect”; in [6] it was “Dose-dependent effect”; in [7], “Non-toxic”. In addition, the inhibition entry in series [4] is “Dose-dependent effect”.

`O=C(O)c1cc(O)c(O)c(O)c1` [GALLIC ACID]: the Activity in [8] was 0.07 pg/mL; in [9] it was 0.88 µmol/mL; in [10] it was 33.06 pg/mL; in series [11], 149.16 pg/mL; in series [3] it was “Non-toxic”; in [12] it was 30.26 pg/mL. Further, the Activity is 62.59 pg/mL in series [13]; 20.57 U/ml in series [14]; “Non-toxic” in series [7]; 122.67 pg/mL in series [15]; 29.76 U/ml in series [16]; 4.17 pg/mL in [17]. For the same compound, the Activity in series [18] was determined as 103.08 pg/mL; in series [19] it was 0.76 pg/mL; in series [20], 80.77 pg/mL; in [21] it was 4.13 pg/mL; in series [22] it was 35.29 U/ml; in series [23], 32.74 pg/mL. Besides, the Activity in [24] was 4.33 pg/mL; in [25] it was 0.14 pg/mL; in series [26], 0.031 µmol/mL; in series [27], 183.21 pg/mL; in [28], 0.39 µmol/mL.

The values above are taken from ChEMBL document CHEMBL3822374, “Anti-inflammatory polyphenol constituents derived from Cissus pteroclada Hayata” (Bioorg Med Chem Lett, 2016).
